Experiments:
[1] = test system: lymph node cells from FVIII-DR2+ mice; assay: Recall responses of lymph node cells from FVIII-DR2+ mice primed with rhFVIII/CFA to the peptide panel; format: cell-based; conditions: FVIII-DR2+ animals immunised with factor VIII in adjuvant; FIG. 3
Excerpt: HLA-DR2 transgenic mice were crossed with factor VIII deficient mice to create a model of haemophilia expressing the human HLA class II MHC molecule.
These FVIII-DR2+ animals were immunised with factor VIII in adjuvant. Draining lymph nodes were isolated and tested for their response to the peptide panel.
The same method was followed as for (i), except the mice were FVIII-deficient, HLA-DR2+ and murine MHC class II null.

T-cell hybridomas [2] = assay: FVIII peptide specificity of T cell hybridomas generated from DR2+ mice (IL-2 production); format: cell-based; conditions: for Number of hybridomas responding to peptide: of the 27 hybridomas screened, HLA-DR2 mice, 20 μg/ml peptide, IL-2
Excerpt: HLA-DR2 mice were first immunised with factor VIII in adjuvant. Spleen cells from immune mice were restimulated in vitro with factor VIII and the resulting lymphoblasts were fused with the BW5147 thymoma using polyethylene glycol.
T-cell hybridomas were selected in HAT medium and the hybridomas cloned and tested for their response to factor VIII. The hybridomas were then screened for their response to the 12 predicted peptides.
(§1) HLA-DR2+ murine MHC class II null mice were immunised as above. On day 10 draining lymph nodes were removed and lymphocytes cultured at 2.5×10^6 cells/ml, 1 ml/well in 24 well plates in the presence of 20 μg/ml rhFVIII for 3 days. Following this stimulation, lymphocytes were recovered, washed and fused with TCRα^−β^− BW fusion partner cells at a ratio of 4 BW cells to 1 lymphocyte, using polyethylene glycol as described by Nelson et al (1980) PNAS 77(5):2866. Fused cells were carefully washed and then plated out in flat bottomed 96 well plates for 2 days before the addition of HAT medium to select for T cell hybridomas. Cells were monitored for growth and approximately 10 days after fusions were performed, individual clones were selected and transferred to 24 well plates in HAT medium. Clones were maintained in HAT medium for at least 2 weeks before being weaned into HT medium and then complete medium. Clones were tested for antigenic specificity by culturing 100 μl of hybridoma cells with 5×10^4 Mgar cells in the presence and absence of 20 μg/ml rhFVIII overnight. Supernatants were then collected and assessed for IL-2 production by ELISA, with clones producing IL-2 in response to rhFVIII being considered positive for FVIII-specificity. To investigate the repertoire of predicted FVIII peptides FVIII-specific clones were again tested for IL-2 production, following overnight incubation with 20 μg/ml of each of the 12 peptides.

[3] = test system: HLA-DR2 restricted cells from factor VIII immunised mice; assay: Recall responses (proliferation) of lymph node cells from FVIII+DR2+ mice primed with rhFVIII/CFA to FVIII peptides; format: cell-based; conditions: FVIII+DR2+ mice immunised with human factor VIII in adjuvant; LNC restimulated in vitro with peptide; FIG. 1
T-cell hybridomas [4] = assay: FVIII peptide specificity of T cell hybridomas generated from FVIII-/- HLA-DR2+ mice (IL-2 production); format: cell-based; conditions: of 19 hybridomas specific for factor VIII; factor VIII deficient HLA-DR2 mice
Excerpt: Factor VIII deficient mice expressing HLA-DR2 were immunised with factor VIII in adjuvant. Spleen cells from the immunised mice were restimulated in vitro with factor VIII and the resulting lymphoblasts were fused with BW5147, as described above. T-cell hybridomas were screened for their response to the 12 predicted peptides. Yet again, the majority of hybridomas responded to peptides DNIMV (SEQ ID NO:72) and PRCLT (SEQ ID NO:70). Of 19 hybridomas specific for factor VIII, 10 responded to DNIMV (SEQ ID NO:72), 6 to PRCLT (SEQ ID NO:70), 1 to PPIIA (SEQ ID NO:65), 1 to SLYIS (SEQ ID NO:64) and 1 to DTLLI (SEQ ID NO:69).
as §1
The same method was followed as for (ii), except the mice were FVIII-deficient and HLA-DR2+.

HLA-DR2 transgenic mice = assay: Tolerisation of FVIII-specific responses in DR2+ mice by pre-treatment with peptide; format: in vivo; conditions: 3x i.p. 100 μg peptide prior to priming with rhFVIII/CFA, vs PBS, FIG. 6
Procedure: HLA-DR2 transgenic mice were treated with either of the two soluble peptides, or PBS as a control, prior to immunisation with factor VIII in adjuvant. Draining lymph nodes were isolated and the cells restimulated in vitro with factor VIII protein in order to assess the immune status of the mice.
HLA-DR2+ murine MHC class II null mice were treated 3 times with 100 μg of DNIMV (SEQ ID NO:72), PRCLT (SEQ ID NO:70) or PPIIA (SEQ ID NO:65) dissolved in PBS, or the equivalent volume of PBS alone. Peptides were administered intraperitoneally, with 3-4 days between each dose. Following the final administration, mice were primed with rhFVIII emulsified in complete Freunds adjuvant as for (i). 10 days later, draining lymph nodes were recovered and lymphocytes subsequently cultured in vitro with rhFVIII, or each of the tolerising peptides as well as control antigens, for 72 hours before the addition of tritiated thymidine as for (i).

[5] = test system: fixed Mgar cells / FVIII-/- T cell hybridoma clones; assay: Presentation by fresh or fixed Mgar cells to hybridoma clones (antigen processing-independent presentation, IL-2 ELISA); format: cell-based; conditions: 20 μg/ml, overnight, Mgar cells fresh or fixed with 1% paraformaldehyde, IL-2 by ELISA; FIG. 5
Procedure: In order to be an antigen processing-independent epitope, a peptide must be capable of binding to an MHC class I or II molecule without further antigen processing (i.e. trimming) and be presented to a T cell. In the present case, the capacity of peptides to be presented by fixed APC was investigated.
Mgar cells were either fresh or fixed with 1% paraformaldehyde. Clones were tested for antigenic specificity by culturing 100 μl of hybridoma cells with 5×10^4 Mgar cells in the presence and absence of 20 μg/ml rhFVIII or peptide epitopes overnight. Supernatants were then collected and assessed for IL-2 production by ELISA.

Sequence | Response of lymph node cells to peptide [1] | Quality of hybridoma response to peptide (T-cell hybridomas [2]; HLA-DR2 mice hybridomas) | Number of hybridomas responding to peptide (T-cell hybridomas [2]) | Response of lymph node cells to peptide (LNC proliferation) [3] | Number of hybridomas responding to peptide (T-cell hybridomas [4]) | Immune response to factor VIII after peptide pre-treatment (LNC recall response) (HLA-DR2 transgenic mice) | Presentation by live and fixed Mgar cells [5]
RYLRIHPQSWVHQIA [FVIII first AA 2322] | significant response | – | – | – | – | – | –
PPIIARYIRLHPTHY [FVIII first AA 2161] | – | weaker and less specific | 3 | responses | 1 | – | –
SLYISQFIIMYSLDG [FVIII first AA 2114] | – | – | – | – | 1 | – | –
DTLLIIFKNQASRPY | – | – | – | – | 1 | – | –
DNIMVTFRNQASRPY | responded well | – | 11 | respond strongly | 10 | substantial suppression of the immune response to factor VIII | presented by both live and fixed Mgar cells
PRCLTRYYSSFVNME | responded well | – | 3 | responses | 6 | substantial suppression of the immune response to factor VIII | presented by both live and fixed Mgar cells
GTLMVFFGNVDSSGI [FVIII first AA 2140] | weak response | – | – | – | – | – | –

Source: patent US8445448B2, “FVIII peptides and their use in tolerising haemophiliacs” (Apitope International NV, priority 2007, dated 2013)
